Molecules are shown by their SMILES. Where only a bound is given, the exact number is not on record here.

Assay [1] concerns the target T1, ENPP1 (Homo sapiens, UniProt P22413).
T1 sequence (P22413 1-925): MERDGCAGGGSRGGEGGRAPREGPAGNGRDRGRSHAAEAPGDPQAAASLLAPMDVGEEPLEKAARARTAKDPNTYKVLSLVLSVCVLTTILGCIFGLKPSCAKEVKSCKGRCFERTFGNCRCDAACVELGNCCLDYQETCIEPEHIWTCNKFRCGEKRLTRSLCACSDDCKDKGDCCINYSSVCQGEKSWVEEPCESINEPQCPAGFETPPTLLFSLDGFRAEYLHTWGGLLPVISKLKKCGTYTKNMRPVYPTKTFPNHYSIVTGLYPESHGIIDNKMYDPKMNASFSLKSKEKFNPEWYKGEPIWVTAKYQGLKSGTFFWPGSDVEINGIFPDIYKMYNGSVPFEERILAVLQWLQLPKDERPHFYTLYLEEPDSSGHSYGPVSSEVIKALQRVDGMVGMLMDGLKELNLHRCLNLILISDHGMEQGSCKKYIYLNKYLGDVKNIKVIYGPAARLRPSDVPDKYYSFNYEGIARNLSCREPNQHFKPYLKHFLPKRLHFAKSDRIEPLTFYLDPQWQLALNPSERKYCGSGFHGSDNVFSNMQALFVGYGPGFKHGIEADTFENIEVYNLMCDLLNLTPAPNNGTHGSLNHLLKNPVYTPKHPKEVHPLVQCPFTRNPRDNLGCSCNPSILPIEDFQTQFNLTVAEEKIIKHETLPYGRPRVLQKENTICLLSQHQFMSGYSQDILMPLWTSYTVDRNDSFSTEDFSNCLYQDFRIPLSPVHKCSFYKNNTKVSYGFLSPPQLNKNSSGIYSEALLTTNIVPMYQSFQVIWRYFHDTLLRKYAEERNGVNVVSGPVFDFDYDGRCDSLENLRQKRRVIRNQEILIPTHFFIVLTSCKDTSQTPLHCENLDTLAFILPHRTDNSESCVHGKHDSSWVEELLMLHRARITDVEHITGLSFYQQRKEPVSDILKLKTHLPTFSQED
Briefly: ENPP1 enzyme assay with cGAMP substrate (AMP-Glo). The assay is classed as biochemical. Set-up: purchased R&D Systems. The conditions noted are these: cGAMP substrate; for inhibition at 1 µM: 1 µM compound, read-out: cGAMP: % Inhibition at 1 µM; for Ki: Ki from IC50 by Cheng-Prusoff, read-out: cGAMP: Ki. From the text:
Example B1: ENPP1 Enzyme Assay With cGAMP Substrate
Ectonucleotide pyrophosphatase/phosphodiesterase 1 (ENPP-1) is a transmembrane glycoprotein that hydrolyzes nucleotides and nucleotide derivatives with the formation of nucleoside-5’-monophosphates. […] The 5’-AMP formed from the reaction is detected using the AMP-Glo® Kit (Promega). The assay kit contains two reagents. The first reagent terminates the enzymatic reaction, removes ATP (using adenylyl cyclase), and converts 5’-AMP produced into ADP (using polyphosphate: AMP phosphotransferase). The second reagent converts ADP to ATP (using adenylate kinase) and generates light from ATP using the luciferin/luciferase reaction.
Different concentrations of ENPP1 inhibitors are pre-incubated with 5 ng/well of human ENPP-1 enzyme (R&D Systems) for 15 minutes at 37° C. The reaction is initiated by adding 20 µM 2’3’-cGAMP and incubating for 30 minutes at 37° C. The final assay reaction mixture contains a buffer of 50 mM Tris pH 8.0, 250 mM NaCl, 0.5 mM CaCl2, 1 µM ZnCl2 and 1% DMSO. At the end of the incubation, the reaction is stopped by adding 12 µl of AMP-Glo reagent-1 and mixing the reaction uniformly for 5 minutes, followed by incubation at room temperature for one hour. Then 25 µl of AMP Glo reagent-2 is added to the reaction, mixed uniformly with a pipette, and incubated at room temperature for one hour to convert the ADP formed from reagent-1 to ATP and light. The generated light is measured in a Perkin Elmer Victor® instrument.
The IC50 values for percent inhibition versus compound concentration are determined by fitting the inhibition curves using a four-parameter variable slope model in GraphPad Prism® software. Ki values are derived from the IC50 values using the Cheng-Prusoff equation: […]

The target in assay [2] is T1, ENPP1. Description: Indirect quantitation of 2',3'-cGAMP hydrolysis (AMP-Glo Assay kit). Format: biochemical.
Assay [3] has as its target T1, ENPP1. Description: ENPP1 enzyme assay with AMP-pNP substrate (hydrolysis of ATP analog). The assay is classed as biochemical. Summed up:
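Reactions ran 20 min at 37 °C, pH 8.5 Tris buffer with NaCl, CaCl2, ZnCl2, using 300 µM AMP-pNP and 60 ng/well recombinant human ENPP1; inhibitor range 10 µM–30 pM, duplicates.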

Assay [4] relates to IFN β gene transcription. Description: IFNβ mRNA in cGAMP-stimulated human foreskin fibroblasts (HFF-1). Format: cell-based. The conditions noted are these: cGAMP-stimulated human foreskin fibroblast cells (HFF-1). On the procedure: Human Foreskin Fibroblasts
The cell line was sourced from ATCC (Cat# SCRC-1041). Cells were cultured in 15% fetal bovine serum-containing growth medium. They were seeded in a 48 well plate @ 100,000 per well (300 µL), and incubated for 1 hour at 37° C., 5% CO2. 100 µl of compound (0.05 µM to 5 µM final concentrations) was added 30 min prior to addition of cGAMP (12.5 µM & 25 µM final concentrations). The plate was incubated for 3 hrs at 37° C., 5% CO2. Cells were washed with PBS and 250 µl of RLT reagent (provided in the RNA isolation kit (RNeasy Mini kit, Qiagen Cat # 74106). was added to each well. RNA was isolated using this kit as per the given protocol. RNA was converted to cDNA using a Bio-Rad cDNA conversion kit (iScript® cDNA synthesis kit, Bio-Rad Cat #170-8891). IFN βgene transcription was quantitated using SYBR green dye in an RT-PCR instrument. The methods and protocol were the same as for PBMCs, except that Interferon mRNA levels were normalized to GAPDH mRNA.

Assay [5] has as its target T1, ENPP1. Briefly: Substrate selectivity ratio, inhibition of cGAMP hydrolysis versus ATP hydrolysis. The assay is classed as biochemical. The conditions noted are these: ratio Ki AMP-pNP / Ki cGAMP. How it is done: The selectivity ratios for inhibition of cGAMP hydrolysis versus ATP hydrolysis were then calculated as follows: […]
Assay [6] has as its system IFNβ gene transcription. The assay is classed as cell-based, human. The conditions noted are these: 3, 6, and 19 hrs exposure; VACV-70 stimulated PBMCs.
In assay [7] the target is T1, ENPP1. Description: ENPP1 enzyme assay with TMP-pNP substrate. Format: biochemical. Also on record: purchased R&D Systems. The note with it: Ki from IC50 by Cheng-Prusoff. How it is done: Example B2: ENPP1 Enzyme Assay With TMP-pNP Substrate
Ectonucleotide pyrophosphatase/phosphodiesterase 1 (ENPP-1) is a transmembrane glycoprotein that hydrolyzes nucleotides and nucleotide derivatives with the formation of nucleotide-5’-monophosphates. ENPP-1 hydrolyzes thymidine 5’monophosphate p-nitrophenyl ester (TMP-pNP) to nucleotide-5’-monophosphate and p-nitrophenol, which is a chromogenic product. The amount of p-nitrophenol product formed is measured using its absorbance at 405 nm, which is directly proportional to enzyme activity. Different concentrations of inhibitors are pre-incubated with 15 ng/well of human ENPP-1 enzyme (R&D Systems) for 15 minutes at 37° C. The reaction is initiated by adding 200 µM TMP-pNP and incubating for 10 minutes at 37° C. The final assay reaction mixture contains a buffer of 50 mM Tris pH 8.0, 250 mM NaCl, 0.5 mM CaCl2, 1 µM ZnCl2 and 1% DMSO. The amount of product formed is measured directly in a Tecan® spectrophotometer. Maximal activity control samples (containing enzyme, substrate, and buffer in the absence of ENPP1 inhibitors: MAX) and background control samples (containing enzyme, substrate, and buffer plus a fully inhibitory concentration (3 µM) of the reference ENPP1 Inhibitor, Example 333: MIN) are simultaneously evaluated in order to calculate the percent inhibition at each compound concentration as follows:
The IC50 values for percent inhibition versus compound concentration are determined by fitting the inhibition curves (percent inhibition versus inhibitor concentration) using a four-parameter variable slope model in GraphPad Prism® software. Ki values are derived from the IC50 values using the Cheng-Prusoff equation: […]

Setting [8] is: cGAMP substrate, Ki from IC50 by Cheng-Prusoff, read-out: ENPP1 Inhibition -cGAMP: Ki.
Setting [9] is: AMP-pNP substrate (ATP analog), Ki from IC50 by Cheng-Prusoff, read-out: ENPP1 Inhibition _AMP-pNP: Ki.

As for `COc1cc2ncnc(-c3ccc4c(c3)CN(S(N)(=O)=O)CC4)c2cc1OC` [Example 32, 7-(6,7-dimethoxyquinazolin-4-yl)-3,4-dihydroisoquinoline-2(1H)-sulfonamide], the inhibition at 1 µM in assay [1] was over 75%. Also, the inhibition constant (Ki) in assay [2] (setting [8]) and in assay [3] (setting [9]) was under 100 nM throughout. Also, the “transcription of IFNβ” value in assay [4] is listed as “enhances transcription of IFNβ”. For the same compound, the “Substrate Selectivity: Ki_AMP-pNP/Ki_cGAMP” value (“Substrate Selectivity” below) in assay [5] was 24.3.
As to `COc1ccc2c(Oc3ccc(NS(N)(=O)=O)cc3)ccnc2c1` [Example 54, N-(4-((7-methoxyquinolin-4-yl)oxy)phenyl)sulfamide], the “transcription of IFNβ” value in assay [6] is “enhances transcription of IFNβ”. The Ki was under 100 nM in assay [2] and 100 to 1000 nM in assay [3].
`COc1cc2ncc(C#N)c(N3CCC4(CC3)CCN(S(N)(=O)=O)C4)c2cc1F` [Example 57, 8-(3-cyano-6-fluoro-7-methoxyquinolin-4-yl)-2,8-diazaspiro[4.5]decane-2-sulfonamide]: the Ki in assay [2] (setting [8]) and in assay [3] (setting [9]) was under 100 nM in each case. In addition, in assay [4], the “transcription of IFNβ” value is recorded as “enhances .transcription of IFNβ”. Moreover, the “Substrate Selectivity” value in assay [5] is given as 24.7.
For `COc1ccc2c(Oc3ccc(S(N)(=O)=O)cc3)ccnc2c1` [Example 58, 4-((7-methoxyquinolin-4-yl)oxy)benzenesulfonamide], in assay [6], the “transcription of IFNβ” value was “enhances transcription of IFNβ”.
As for `COc1ccc2c(-c3ccc(CNS(N)(=O)=O)cc3)ccnc2c1` [Example 55, N-(4-(7-methoxyquinolin-4-yl)benzyl)sulfamide], in assay [4], the “transcription of IFNβ” value is listed as “enhances transcription of IFNβ”.
On to `COc1cc2nccc(N3CCC(CCNS(N)(=O)=O)CC3)c2cc1OC` [Example 43, N-(2-(1-(6,7-dimethoxyquinolin-4-yl)piperidin-4-yl)ethyl)sulfamide], for which, in assay [1], the inhibition at 1 µM is over 75%. In addition, the Ki in assay [1] is under 100 nM; in assay [2] (setting [8]) it was under 100 nM; in assay [7], under 100 nM; in assay [3] (setting [9]), 100 to 1000 nM. Moreover, the “Substrate Selectivity” value in assay [5] worked out at 22.9.
As to `COc1cc2ncc(C#N)c(N3CCC(CCNS(N)(=O)=O)CC3)c2cc1OC` [Example 20, N-(2-(1-(3-cyano-6,7-dimethoxyquinolin-4-yl)piperidin-4-yl)ethyl)sulfamide], in assay [1], the inhibition at 1 µM is over 75%. Moreover, the inhibition constant (Ki) in assay [1] is under 100 nM; in assay [2] (setting [8]), under 100 nM; in assay [7], under 100 nM; in assay [3] (setting [9]) it was 100 to 1000 nM. For the same compound, the “Substrate Selectivity” value in assay [5] was 489.
Consider `COc1cc2ncnc(N3CCc4c(cccc4NS(N)(=O)=O)C3)c2cc1OC` [Example 28, N-(2-(6,7-dimethoxyquinazolin-4-yl)-1,2,3,4-tetrahydroisoquinolin-5-yl)sulfamide], for which the inhibition constant Ki in assay [1] was under 100 nM; in assay [2] (setting [8]) it was under 100 nM; in assay [7], 100 to 1000 nM; in assay [3] (setting [9]), 100 to 1000 nM. Further, the “Substrate Selectivity” value in assay [5] worked out at 31.2.

(Values after patent US20230183239A1, “ECTONUCLEOTIDE PYROPHOSPHATASE-PHOSPHODIESTERASE 1 (ENPP-1) INHIBITORS AND USES THEREOF” (AbbVie Inc., priority 2017, published 2023).)
